PubChem BioAssay AID248 (DTP/NCI, 2004)
“And” between values parts separate entries of the source, which are not always exact repeats. Equal entries are not always repeated. Toxic doses and inconclusive results are not listed. Rule as the data show it: active = T/C of 150% or more; inactive = T/C below 125%.

Tested on: L1210 leukemia ip in BDF1 mice, survival T/C
Assay: NCI In Vivo Anticancer Drug Screen. Data for tumor model L1210 Leukemia (intraperitoneal) in B6D2F1 (BDF1) mice
Details: endpoint: mean survival time, higher = longer survival
How it was run: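 In this screen, tumor-bearing mice given compound are compared to those given vehicle, and their survival values are reported as a treated-to-control quotient.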

[1] = dose: 50.0 mg/kg/injection, schedule: Q01DX001 (ip), vehicle: saline
[2] = dose: 100.0 mg/kg/injection, schedule: Q01DX001 (ip), vehicle: saline
[3] = dose: 200.0 mg/kg/injection, schedule: Q01DX001 (ip), vehicle: saline
[4] = dose: 15.0 mg/kg/injection, schedule: Q01DX Z (ip), vehicle: saline
[5] = dose: 30.0 mg/kg/injection, schedule: Q01DX Z (ip), vehicle: saline
[6] = dose: 120.0 mg/kg/injection, schedule: Q01DX Z (ip), vehicle: saline
[7] = dose: 120.0 mg/kg/injection, schedule: Q01DX Z (oral), vehicle: saline
[8] = dose: 240.0 mg/kg/injection, schedule: Q01DX Z (ip), vehicle: saline
[9] = dose: 240.0 mg/kg/injection, schedule: Q01DX Z (oral), vehicle: saline
[10] = dose: 480.0 mg/kg/injection, schedule: Q01DX Z (oral), vehicle: saline
[11] = dose: 960.0 mg/kg/injection, schedule: Q01DX Z (oral), vehicle: saline
[12] = dose: 400.0 mg/kg/injection, schedule: Q01DX001 (ip), vehicle: saline
[13] = dose: 100.0 mg/kg/injection, schedule: Q01DX001 (ip), vehicle: carboxymethylcellulose (CMC)
[14] = dose: 200.0 mg/kg/injection, schedule: Q01DX001 (ip), vehicle: carboxymethylcellulose (CMC)

Measured: T/C

CCN1CCCCCCCCCC(=N/O)/C(=N\O)C1
inactive: [1] 101 % of control | [2] 103 % of control | [3] 95 % of control

S=c1nc[nH]c2c1ncn2-n1cccc1
inactive: dose: 100.0 mg/kg/injection, schedule: Q01DX001 (ip), vehicle: saline with Tween-80 97 % of control | dose: 100.0 mg/kg/injection, schedule: Q04DX003 (ip), vehicle: saline with Tween-80 103 % of control | dose: 200.0 mg/kg/injection, schedule: Q01DX001 (ip), vehicle: saline with Tween-80 87 % of control | dose: 200.0 mg/kg/injection, schedule: Q04DX003 (ip), vehicle: saline with Tween-80 98 % of control | dose: 400.0 mg/kg/injection, schedule: Q01DX001 (ip), vehicle: saline with Tween-80 92 % of control | dose: 400.0 mg/kg/injection, schedule: Q04DX003 (ip), vehicle: saline with Tween-80 98 % of control

COC(=O)c1ccc(OC(=O)Nc2ccc(F)c([N+](=O)[O-])c2)cc1
inactive: dose: 100.0 mg/kg/injection, schedule: Q01DX009 (ip), vehicle: Klucel (hydroxypropylcellulose) (HPC) 101 % of control | dose: 200.0 mg/kg/injection, schedule: Q01DX009 (ip), vehicle: Klucel (hydroxypropylcellulose) (HPC) 104 % of control

O=CC(O)C(O)C(O)C(O)CO (stereo not given)
inactive: dose: 100.0 mg/kg/injection, schedule: Q01DX009 (ip), vehicle: saline 98 % of control | dose: 200.0 mg/kg/injection, schedule: Q01DX009 (ip), vehicle: saline 96 % of control | dose: 400.0 mg/kg/injection, schedule: Q01DX009 (ip), vehicle: saline 107 % of control | dose: 800.0 mg/kg/injection, schedule: Q01DX009 (ip), vehicle: saline 98 % of control

COc1cc2c(c(OC)c1OC)-c1ccc(OC)c(=O)cc1[C@@H](NC(=O)CF)CC2
inactive: dose: 0.04 mg/kg/injection, schedule: Q01DX009 (ip), vehicle: saline 113 % of control | dose: 0.06 mg/kg/injection, schedule: Q04DX002 (ip), vehicle: saline with Tween-80 101 % of control | dose: 0.09 mg/kg/injection, schedule: Q01DX001 (ip), vehicle: saline with Tween-80 116 % of control | dose: 0.09 mg/kg/injection, schedule: Q01DX009 (ip), vehicle: saline with Tween-80 122 % of control | dose: 0.09 mg/kg/injection, schedule: Q01DX009 (ip), vehicle: saline 118 % of control | dose: 0.09 mg/kg/injection, schedule: Q04DX003 (ip), vehicle: saline with Tween-80 108 % of control | dose: 0.12 mg/kg/injection, schedule: Q04DX002 (ip), vehicle: saline with Tween-80 104 % of control | dose: 0.18 mg/kg/injection, schedule: Q01DX001 (ip), vehicle: saline with Tween-80 119 % of control | dose: 0.18 mg/kg/injection, schedule: Q04DX003 (ip), vehicle: saline with Tween-80 113 % of control | dose: 0.25 mg/kg/injection, schedule: Q04DX002 (ip), vehicle: saline with Tween-80 117 % of control | dose: 0.37 mg/kg/injection, schedule: Q01DX001 (ip), vehicle: saline with Tween-80 114 % of control | dose: 0.37 mg/kg/injection, schedule: Q01DX009 (ip), vehicle: saline with Tween-80 100 % of control | dose: 0.37 mg/kg/injection, schedule: Q04DX003 (ip), vehicle: saline with Tween-80 118 % of control | dose: 0.5 mg/kg/injection, schedule: Q04DX002 (ip), vehicle: saline with Tween-80 121 % of control | dose: 0.75 mg/kg/injection, schedule: Q01DX001 (ip), vehicle: saline with Tween-80 121 % of control | dose: 0.75 mg/kg/injection, schedule: Q04DX003 (ip), vehicle: saline with Tween-80 116 % of control | dose: 1.5 mg/kg/injection, schedule: Q04DX002 (ip), vehicle: saline with Tween-80 113 % of control | dose: 2.0 micrograms/kg/injection, schedule: Q01DX009 (ip), vehicle: saline with Tween-80 97 % of control | dose: 5.0 micrograms/kg/injection, schedule: Q01DX009 (ip), vehicle: saline with Tween-80 105 % of control | dose: 10.0 micrograms/kg/injection, schedule: Q01DX009 (ip), vehicle: saline with Tween-80 89 % of control

NC(N)=N/N=C/C(=N\N=C(N)N)C(F)(F)F
inactive: [4] 102 % of control | [5] 98 % of control | dose: 60.0 mg/kg/injection, schedule: Q01DX Z (ip), vehicle: saline 101 % of control and 108 % of control | [6] 93 % of control and 106 % of control | [7] 96 % of control | [8] 98 % of control | [9] 104 % of control | [10] 98 % of control | [11] 98 % of control

CCCCCCCCCCCCOc1ccc(/C(=N\N=C(N)N)c2ccccc2)c(O)c1
inactive: [4] 91 % of control | [5] 89 % of control | [6] 92 % of control | [7] 102 % of control | [8] 103 % of control | [9] 102 % of control | dose: 480.0 mg/kg/injection, schedule: Q01DX Z (ip), vehicle: saline 110 % of control | [10] 95 % of control | [11] 101 % of control

CS(=O)(=O)OCCN(CCOS(C)(=O)=O)c1ccc(/C=N/Nc2ccc([N+](=O)[O-])cc2[N+](=O)[O-])cc1
inactive: [2] 92 % of control | dose: 100.0 mg/kg/injection, schedule: Q01DX009 (ip), vehicle: saline with Tween-80 96 % of control | dose: 100.0 mg/kg/injection, schedule: Q04DX003 (ip), vehicle: saline 91 % of control | dose: 200.0 mg/kg/injection, schedule: Q01DX009 (ip), vehicle: saline with Tween-80 91 % of control | dose: 200.0 mg/kg/injection, schedule: Q04DX003 (ip), vehicle: saline 90 % of control | [12] 89 % of control | dose: 400.0 mg/kg/injection, schedule: Q01DX009 (ip), vehicle: saline with Tween-80 93 % of control | dose: 400.0 mg/kg/injection, schedule: Q04DX003 (ip), vehicle: saline 87 % of control

O=C(CN1CCOCC1)Nc1ccc(-c2ccc(NC(=O)CN3CCOCC3)cc2)cc1
inactive: [13] 92 % of control | [14] 97 % of control | dose: 400.0 mg/kg/injection, schedule: Q01DX001 (ip), vehicle: carboxymethylcellulose (CMC) 92 % of control

c1ccc(C2(NC3=NCCO3)CCCCC2)cc1
inactive: dose: 10.0 mg/kg/injection, schedule: Q01DX009 (ip), vehicle: Klucel (hydroxypropylcellulose) (HPC) 101 % of control | dose: 20.0 mg/kg/injection, schedule: Q01DX009 (ip), vehicle: Klucel (hydroxypropylcellulose) (HPC) 97 % of control | dose: 40.0 mg/kg/injection, schedule: Q01DX009 (ip), vehicle: Klucel (hydroxypropylcellulose) (HPC) 101 % of control | dose: 75.0 mg/kg/injection, schedule: Q01DX009 (ip), vehicle: Klucel (hydroxypropylcellulose) (HPC) 107 % of control

CC(=O)C(C)CCOC1(C)OCCC1C (stereo not given)
inactive: [1] 103 % of control | [2] 116 % of control | [3] 100 % of control | [12] 103 % of control

CC(CC#N)c1ccc[nH]1 (stereo not given)
inactive: dose: 5.0 mg/kg/injection, schedule: Q01DX001 (ip), vehicle: carboxymethylcellulose (CMC) 115 % of control | dose: 10.0 mg/kg/injection, schedule: Q01DX001 (ip), vehicle: carboxymethylcellulose (CMC) 111 % of control | dose: 20.0 mg/kg/injection, schedule: Q01DX001 (ip), vehicle: carboxymethylcellulose (CMC) 117 % of control | dose: 40.0 mg/kg/injection, schedule: Q01DX001 (ip), vehicle: carboxymethylcellulose (CMC) 113 % of control | dose: 50.0 mg/kg/injection, schedule: Q01DX001 (ip), vehicle: carboxymethylcellulose (CMC) 109 % of control | dose: 80.0 mg/kg/injection, schedule: Q01DX001 (ip), vehicle: carboxymethylcellulose (CMC) 96 % of control | [13] 102 % of control | [14] 107 % of control
